Here are results for seven compounds from patent US5807819A, “Peptides useful for altering bone resorption” (priority 1995, dated 1998).

Where a SMILES comes first, the peptide text is derived from it. Bridges are numbered along the chain shown (N, C = ends). [ ]: non-standard residue; d: D form. Tic = O=C(O)[C@@H]1Cc2ccccc2CN1; Pen = CC(C)(S)[C@H](N)C(=O)O; Mpa = O=C(O)CCS

Assay [1] can be described thus: Parathyroid hormone-induced hypercalcemia in mice. In kind it is in vivo, Swiss-Webster mice. As to conditions: parathyroidectomized mice, 4 hr i.v. peptide infusion, FIG. 9. The text has this: Parathyroid hormone (PTH) activates osteoclasts, which are involved in bone resorption. Associated with the increased osteoclast activity is an increase in serum calcium. The PTH-induced hypercalcemia assay measures the level of serum calcium, which is an indication of bone resorption in a subject (Fischer et al., Endocrinology 132:1411-1413 (1993), which is incorporated herein by reference).
Swiss-Webster mice, which had been parathyroidectomized two weeks prior to beginning the assay, were obtained from Taconic Lab Animals and Services (Germantown N.Y.). Femoral vein catheters (PE-50 fused with PE10 polyethylene tubing; Becton Dickinson; Parsippany, N.J.) were installed in the mice, flushed and locked with heparinized saline (1:10), sutured to adjacent muscle and internalized within the inguinal space of the incision before closing the incision with wound clips. […]
The experiment was initiated by feeding the mice a calcium-deficient diet overnight, then injecting the mice the following morning with a bolus of 0.2 mg PTH/kg (hPTH 1-34; Bachem; Torrance Calif.), intravenously. […] Various doses of a peptide or vehicle were infused into an animal for 4 hr, then ionized serum calcium again was measured. […] Serum calcium measurements were expressed as the difference between the value 30 min before the PTH pulse and 4 hr after peptide infusion was started. […]

Assay [2] concerns αV β3 integrin receptor. The assay is described as follows: Series of in vitro assays of Example II for potency and selectivity (FIG. 2). The conditions noted are these: for receptor selectivity classification / potency classification: summary of assays; for activity (FIG. 2): minimal-element peptides. The text has this: Such peptides can include, for example, peptides within the pharmacophore groups exemplified herein or peptides within other pharmacophore groups. […] The selectivity of a peptide for an integrin receptor involved in osteoclast binding to bone can be determined, for example, using the integrin receptor assays and cell attachment and detachment assays described herein.
Comparison of the IC50 values generated using the JY cell assay and the αV β3 ELISA, which measure binding of the αV β3 receptor involved in osteoclast binding to bone, with the αV β5 and α5 β1 receptor-specific ELISAs, which represent receptors that likely are not involved in osteoclast attachment, provides insight into the receptor selectivity of the peptides.

The subject of assay [3] is platelet αIIb β3 integrin receptor. The assay is described as follows: Platelet aggregation assay. In kind it is cell-based. The conditions noted are these: ADP-induced, platelet-rich plasma from heparinized blood; read-out: IC50 inhibiting platelet aggregation. As for the experimental part:
This example provides a method for performing a platelet aggregation assay, which is a measure of peptide binding to the platelet αIIb β3 integrin receptor.
Platelet-rich plasma (PRP) was prepared fresh from heparinized whole blood. 0.6 ml PRP was placed in a 1.5 ml microcentrifuge tube and centrifuged for 4 min at 14,000×g. Following centrifugation, 0.5 ml supernatant (platelet poor plasma; PPP) was transferred to a 1 ml silicon coated aggregometer tube (Chrono-Log Corp.; Havertown Pa.) and placed in the PPP slot of a Chrono-Log Model 400VS aggregometer (see Tschopp et al., Thromb. Haem. 72:119-124 (1994), which is incorporated herein by reference).
Platelet concentration of the PRP sample was determined using a cell counter and the sample was diluted with homologous PPP to obtain 300,000 platelets/μl. 0.5 ml of the diluted PRP was placed in an aggregometer tube with a stir bar and incubated for 5 min at 37° C. without stirring. The tube was transferred to the PRP slot in the aggregometer and the sample was stirred at 1200 rpm for 5-10 min at 37° C. […]
Platelet aggregation was initiated by adding adenosine diphosphate (ADP) to a concentration of 10 μM. Platelet aggregation was measured in 2 mm units from baseline (before ADP addition) to response at two min from the time of ADP addition or maximal response (if before 2 min), whichever is larger. […]

In another assay the test system is chick osteoclasts. The assay is described as follows: Chick cell detachment assay (osteoclasts vs total cells). In kind it is cell-based. The conditions noted are these: FIG. 5, serum-coated plates.
For another assay, the system named is rat osteoclasts. The experiment in a line: Rat osteoclast attachment assay compared with MG63/NRK cell attachment. In kind it is cell-based. As to conditions: FIGS. 7 and 8, FCS substrate. As for the experimental part: To determine the effect of a peptide on the attachment of rat osteoclasts in vitro, 100 μl aliquots of the rat pup bone cell suspension described in Example II.B.2., above, were added in triplicate to 96 well "MAXISORP" plates coated with specific substrates or with FCS. Substrate coated plates were used to determine the ability of peptides to inhibit attachment or induce detachment of an osteoclast from a ligand such as vitronectin, fibronectin, osteopontin or collagen I (Collaborative Research), which are ligands present in bone. Substrates were added to 96 well plates (50 μl of a 5-10 μg/ml solution in sodium carbonate, pH 9.5) and incubated for 2 hr at 37° C. For FCS control wells, 100 μl 10% FCS was added. Wells were aspirated, then washed 2× with PBS and blocked with 1% bovine serum albumin in PBS for 2 hr at 37° C. Wells were aspirated and washed again 2× with PBS. Cells were seeded in duplicate at 4×10^4 cells/well. […]
Following incubation, the medium and nonadherent cells were removed by aspiration from each well. […] Adherent osteoclasts were counted by light microscopy. […]
MG63 and NRK cell lines were purchased from ATTC (Rockville Md.). […] Following staining, the stain was extracted with 20% acetic acid and the OD562 of the extracted stain was determined. […]
Selectivity of a peptide can be determined by comparing the results of FIGS. 7 and 8 (see, also FIG. 2).

The test system of assay [4] is αV β3 integrin receptor. The conditions noted are these: rabbit, in vivo; cited from earlier work.

Method for chick osteoclasts: Peptides were evaluated for their ability to detach osteoclasts from a matrix consisting of serum-coated microtiter plates.
Briefly, chick long bones (femur and tibia) were dissected free of soft tissue and minced in prewarmed minimum essential medium (MEM, pH 7.2; Irvine Scientific; Irvine, Calif.) with Earl's salts, supplemented with 10% heat-inactivated fetal calf serum (FCS) and 200 mM glutamine and containing 100 μg/ml streptomycin and 100 IU/ml penicillin. Cells were removed from bone fragments by vigorous shaking in a capped centrifuge tube. Large particulate material was allowed to settle prior to removal of the cell suspension. After repeated agitation of the cells with a large transfer pipette, 100 μl aliquots of cells were added in triplicate to Corning 96 well microtiter plates that had been preincubated for 1 hr with 100 μl of MEM/FCS media.
The cells were incubated for 90 min at 37° C. in an atmosphere containing 10% CO2. Following incubation, the cell layers were carefully washed 2× with 200 μl sterile PBS, then 100 μl of fresh MEM/FCS was added. Peptides were diluted in the same medium and added to each well. The cells were incubated overnight as described above. […] 5 min using 0.1% crystal violet and multinucleated osteoclasts were counted by light microscopy. […]

For the compound `CC(C)[C@@H]1NC(=O)[C@H](CC(=O)O)NC(=O)[C@H](CC(=O)O)NC(=O)CNC(=O)[C@H](CCCNC(=N)N)NC(=O)CCSSC[C@@H](C(N)=O)NC1=O` [compound 191] ([Mpa]RGDDVC-NH2; disulfide 1-7), the “PTH-induced rise in serum ionized calcium” value in assay [1] is “decreased the PTH-induced rise in serum ionized calcium in a dose responsive manner”.

With `CC(=O)N[C@H]1CSSC(C)(C)[C@@H](C(N)=O)NC(=O)[C@@H]2CCCN2C(=O)[C@H](CC(N)=O)NC(=O)[C@H](CC(=O)O)NC(=O)CNC(=O)[C@H](CCCNC(=N)N)NC1=O` [compound 228] (Ac-CRGDNP[Pen]-NH2; disulfide 1-7), the receptor selectivity classification result in the assay on αV β3 integrin receptor [2] is “particularly receptor selective”.

As to `CC(=O)N[C@H]1CSSC[C@@H](C(N)=O)NC(=O)[C@@H]2Cc3ccccc3CN2C(=O)[C@H](CO)NC(=O)[C@H](CC(=O)O)NC(=O)CNC(=O)[C@H](CCCNC(=N)N)NC1=O` [compound 812, Ac-CRGDS(Tic)C-NH2] (Ac-CRGDS[Tic]C-NH2; disulfide 1-7), in the assay on αV β3 integrin receptor [2], the “activity (FIG. 2)” value is reported as “demonstrate activity” and the potency classification result is “particularly potent”.

With `COc1ccc(C[C@@H]2NC(=O)[C@H](CC(=O)O)NC(=O)CNC(=O)[C@H](CCCNC(=N)N)NC(=O)CC[C@@H](C(N)=O)NC(=O)[C@H](CCCNC(=N)N)NC2=O)cc1` [compound 940, RGD(YOMe)RE-NH2], the IC50 in assay [3] is 820 nM.

`CC(=O)N[C@@H]1C(=O)N[C@@H](Cc2ccccc2)C(=O)N[C@@H](C)C(=O)N[C@@H](CCCNC(=N)N)C(=O)NCC(=O)N[C@@H](CC(=O)O)C(=O)N[C@@H](CC(N)=O)C(=O)N2CCC[C@H]2C(=O)N[C@H](C(N)=O)CSSC1(C)C` [peptide 214] (Ac-[Pen]FARGDNPC-NH2; disulfide 1-9): the potency classification entry with αV β3 integrin receptor [2] is recorded as “particularly potent”.

Regarding `CC(C)[C@@H]1NC(=O)[C@H](CC(=O)O)NC(=O)[C@H](CC(=O)O)NC(=O)CNC(=O)[C@H](CCCNC(=N)N)NC(=O)CC[C@@H](C(N)=O)NC1=O` [peptide 386, RGDDVE-NH2] (RGDDVE-NH2; lactam N-6), in the assay on αV β3 integrin receptor [2], the “activity (FIG. 2)” value is recorded as “demonstrate activity” and the receptor selectivity classification result is listed as “particularly receptor selective”. Besides, the “selective detachment of osteoclasts compared to other cell types” value in the assay with chick osteoclasts is listed as “caused selective detachment of osteoclasts as compared to other cell types”. For the same compound, the “PTH-induced rise in serum ionized calcium” value in assay [1] was “relatively low level of serum calcium”. Besides, the “selectivity: osteoclast attachment versus MG63 or NRK attachment” value in the assay on rat osteoclasts is given as “highly active on osteoclast attachment but were less active on MG63 or NRK attachment”.

For the compound G(Pen)GRGDSPCA, the neointimal hyperplasia result with αV β3 integrin receptor [4] is given as “can inhibit neointimal hyperplasia”.
